{"source": "patent US10123537B2", "about": "“Amide compound or salt thereof, agricultural and horticultural insecticide and microbicide comprising the compound, and method for using the insecticide and microbicide” (NIHON NOHYAKU CO., LTD., priority 2013, dated 2018)", "key": {"Laodelphax striatella": {"system": "Laodelphax striatella", "test": "Insecticidal test on Laodelphax striatella", "type": "in vivo", "details": "Laodelphax striatellus, 192 h, rice seedlings dipped 30 seconds, 3rd-instar larvae, 8 days after inoculation, read-out: insecticidal effect (corrected mortality rate) activity level", "description": "Insecticidal Test on Laodelphax striatella\nThe amide compounds represented by the general formula (I) of the present invention or salts thereof were separately dispersed in water and diluted to 500 ppm, and rice plant seedlings (variety: Nihonbare) were dipped in the agrochemical dispersions for 30 seconds. After air-dried, each seedling was put into a separate glass test tube and inoculated with ten 3rd-instar larvae of Laodelphax striatella, and then the glass test tubes were capped with cotton plugs. At 8 days after the inoculation, the numbers of surviving larvae and dead larvae were counted, the corrected mortality rate was calculated according to the formula shown below, and the insecticidal effect was evaluated according to the criteria of Test Example 1. Corrected mortality rate (%)=100×(Survival rate in a non-treatment plot−Survival rate in a treatment plot)/Survival rate in a non-treatment plot"}, "Plutella xylostella": {"system": "Plutella xylostella", "test": "Insecticidal test on Plutella xylostella", "type": "in vivo", "details": "144 h, Chinese cabbage seedlings with laid eggs dipped about 30 seconds, 25° C., 6 days after dip treatment, read-out: insecticidal effect (corrected mortality rate, hatched larvae) activity level", "description": "Insecticidal Test on Plutella xylostella\nAdults of Plutella xylostella were released onto Chinese cabbage seedlings and allowed to lay eggs thereon. At 2 days after the release of the adults, the Chinese cabbage seedlings with laid eggs were dipped for about 30 seconds in agrochemical formulations diluted to 500 ppm, each of which contained a different amide compound represented by the general formula (I) of the present invention as an active ingredient. After air-dried, the seedlings were kept in a thermostatic chamber at 25° C. At 6 days after the dip treatment, the number of hatched larvae per plot was counted, the mortality rate was calculated according to the formula shown below, and the insecticidal effect was evaluated according to the criteria of Test Example 1. This test was conducted in triplicate using 10 adults of Plutella xylostella per plot. Corrected mortality rate (%)=100×(Number of hatched larvae in a non-treatment plot−Number of hatched larvae in a treatment plot)/Number of hatched larvae in a non-treatment plot"}, "Tetranychus urticae": {"system": "Tetranychus urticae", "test": "Acaricidal test on Tetranychus urticae", "type": "in vivo", "details": "500 ppm, kidney bean leaf disks dipped about 30 seconds, female adults, two days later, 25° C.", "description": "Acaricidal Test on Tetranychus urticae"}, "Meloidogyne incognita": {"system": "Meloidogyne incognita", "test": "Nematicidal test on Meloidogyne incognita", "type": "in vivo", "details": "500 ppm, 1 mL soil drench, potted melon seedlings, 8 days after inoculation", "protocol": "Nematicidal Test on Meloidogyne incognita\nAgrochemical formulations containing different amide compounds represented by the general formula (I) of the present invention or salts thereof as an active ingredient were separately diluted to a concentration of 500 ppm. The diluted agrochemical formulations (1 mL) were drenched into the soil around the foot of potted melon seedlings. At one day after the agrochemical treatment, an aqueous suspension of Meloidogyne incognita (about 500 worms/mL) was drenched into the soil for inoculation both in a treatment plot and in a non-treatment plot. The inoculated pots were kept in a greenhouse at 25° C. At 8 days after the inoculation, the root of each seedling was washed with water, the number of root nodules was counted, and the nematicidal effect was evaluated according to the following criteria.\nA: the percentage of the number of root nodules relative to the non-treatment plot is 0%.\nB: the percentage of the number of root nodules relative to the non-treatment plot is 1 to 10%.\nC: the percentage of the number of root nodules relative to the non-treatment plot is 11 to 20%.\nD: the percentage of the number of root nodules relative to the non-treatment plot is 21 to 50%."}, "[1]": {"system": "wheat powdery mildew fungus Erysiphe graminis", "details": "200 ppm, foliar application to wheat plants, 10 mL per pot, 7 days after inoculation"}}}
{"compound": "CCSc1cc(C(F)(F)F)ccc1C(=O)N(C)c1ccc(C(F)(F)F)cn1", "note": "[Compound 1-1, 2-(ethylthio)-N-methyl-4-(trifluoromethyl)-N-(5-(trifluoromethyl)pyridin-2-yl)benzamide]", "values": [{"measurement": "mortality at 500 ppm", "setting": "Laodelphax striatella", "result": 100, "unit": "%"}, {"measurement": "mortality at 500 ppm", "setting": "Plutella xylostella", "result": 100, "unit": "%"}, {"measurement": "acaricidal effect (corrected mortality rate) activity level", "setting": "Tetranychus urticae", "result": "D or higher"}, {"measurement": "nematicidal effect (number of root nodules relative to non-treatment plot) activity level", "setting": "Meloidogyne incognita", "result": "D or higher"}]}
{"compound": "CC[S+]([O-])c1cc(C(F)(F)F)ccc1C(=O)N(C)c1ccc(C(F)(F)F)cn1", "note": "(stereo not drawn) [Compound 1-2, 2-(ethylsulfinyl)-N-methyl-4-(trifluoromethyl)-N-(5-(trifluoromethyl)pyridin-2-yl)benzamide]", "values": [{"measurement": "mortality at 500 ppm", "setting": "Laodelphax striatella", "result": 100, "unit": "%"}, {"measurement": "mortality at 500 ppm", "setting": "Plutella xylostella", "result": 100, "unit": "%"}, {"measurement": "nematicidal effect (number of root nodules relative to non-treatment plot) activity level", "setting": "Meloidogyne incognita", "result": "D or higher"}]}
{"compound": "CCS(=O)(=O)c1cc(C(F)(F)F)ccc1C(=O)N(C)c1ccc(C(F)(F)F)cn1", "note": "[Compound 1-3, 2-(ethylsulfonyl)-N-methyl-4-(trifluoromethyl)-N-(5-(trifluoromethyl)pyridin-2-yl)benzamide]", "values": [{"measurement": "mortality at 500 ppm", "setting": "Laodelphax striatella", "result": 100, "unit": "%"}, {"measurement": "mortality at 500 ppm", "setting": "Plutella xylostella", "result": 100, "unit": "%"}, {"measurement": "nematicidal effect (number of root nodules relative to non-treatment plot) activity level", "setting": "Meloidogyne incognita", "result": "D or higher"}]}
{"compound": "CCSc1cc(C(F)(F)F)ccc1C(=O)N(CC)c1ccc(C(F)(F)F)cn1", "note": "[Compound 1-4]", "values": [{"measurement": "acaricidal effect (corrected mortality rate) activity level", "setting": "Tetranychus urticae", "result": "D or higher"}, {"measurement": "nematicidal effect (number of root nodules relative to non-treatment plot) activity level", "setting": "Meloidogyne incognita", "result": "D or higher"}]}
{"compound": "CCN(C(=O)c1ccc(C(F)(F)F)cc1[S+]([O-])CC)c1ccc(C(F)(F)F)cn1", "note": "(stereo not drawn) [Compound 1-5]", "values": [{"measurement": "acaricidal effect (corrected mortality rate) activity level", "setting": "Tetranychus urticae", "result": "D or higher"}, {"measurement": "nematicidal effect (number of root nodules relative to non-treatment plot) activity level", "setting": "Meloidogyne incognita", "result": "D or higher"}, {"measurement": "control effect (control rate, lesion area) activity level", "setting": "[1]", "result": "D or higher"}]}
{"compound": "CCN(C(=O)c1ccc(C(F)(F)F)cc1S(=O)(=O)CC)c1ccc(C(F)(F)F)cn1", "note": "[Compound 1-6]", "values": [{"measurement": "acaricidal effect (corrected mortality rate) activity level", "setting": "Tetranychus urticae", "result": "D or higher"}, {"measurement": "nematicidal effect (number of root nodules relative to non-treatment plot) activity level", "setting": "Meloidogyne incognita", "result": "D or higher"}, {"measurement": "control effect (control rate, lesion area) activity level", "setting": "[1]", "result": "D or higher"}]}
{"compound": "CC[S+]([O-])c1cc(C(F)(F)F)ccc1C(=O)N(c1ccc(C(F)(F)F)cn1)C1CC1", "note": "(stereo not drawn) [Compound 1-8]", "values": [{"measurement": "acaricidal effect (corrected mortality rate) activity level", "setting": "Tetranychus urticae", "result": "D or higher"}, {"measurement": "nematicidal effect (number of root nodules relative to non-treatment plot) activity level", "setting": "Meloidogyne incognita", "result": "D or higher"}]}
{"compound": "CCS(=O)(=O)c1cc(C(F)(F)F)ccc1C(=O)N(c1ccc(C(F)(F)F)cn1)C1CC1", "note": "[Compound 1-9]", "values": [{"measurement": "acaricidal effect (corrected mortality rate) activity level", "setting": "Tetranychus urticae", "result": "D or higher"}, {"measurement": "nematicidal effect (number of root nodules relative to non-treatment plot) activity level", "setting": "Meloidogyne incognita", "result": "D or higher"}]}
{"compound": "CCSc1cc(C(F)(F)F)ccc1C(=O)N(C)c1ccc(C(F)(F)C(F)(F)F)cn1", "note": "[Compound 1-25]", "values": [{"measurement": "acaricidal effect (corrected mortality rate) activity level", "setting": "Tetranychus urticae", "result": "D or higher"}, {"measurement": "nematicidal effect (number of root nodules relative to non-treatment plot) activity level", "setting": "Meloidogyne incognita", "result": "D or higher"}]}
{"compound": "CCS(=O)(=O)c1cc(C(F)(F)F)ccc1C(=O)N(C)c1ccc(C(F)(F)C(F)(F)F)cn1", "note": "[Compound 1-26]", "values": [{"measurement": "acaricidal effect (corrected mortality rate) activity level", "setting": "Tetranychus urticae", "result": "D or higher"}, {"measurement": "nematicidal effect (number of root nodules relative to non-treatment plot) activity level", "setting": "Meloidogyne incognita", "result": "D or higher"}]}
{"compound": "CC[S+]([O-])c1cc(C(F)(F)F)ccc1C(=O)N(C)c1ccc(C(F)(F)F)cc1", "note": "(stereo not drawn) [Compound 3-2]", "values": [{"measurement": "acaricidal effect (corrected mortality rate) activity level", "setting": "Tetranychus urticae", "result": "D or higher"}, {"measurement": "nematicidal effect (number of root nodules relative to non-treatment plot) activity level", "setting": "Meloidogyne incognita", "result": "D or higher"}]}
{"compound": "CCS(=O)(=O)c1cc(C(F)(F)F)ccc1C(=O)N(C)c1ccc(C(F)(F)F)cc1", "note": "[Compound 3-3]", "values": [{"measurement": "acaricidal effect (corrected mortality rate) activity level", "setting": "Tetranychus urticae", "result": "D or higher"}, {"measurement": "nematicidal effect (number of root nodules relative to non-treatment plot) activity level", "setting": "Meloidogyne incognita", "result": "D or higher"}, {"measurement": "control effect (control rate, lesion area) activity level", "setting": "[1]", "result": "D or higher"}]}
{"compound": "CCSc1cc(C(F)(F)F)ccc1C(=O)N(C)c1ccc(C(OC)(C(F)(F)F)C(F)(F)F)cc1", "note": "[Compound 3-4]", "values": [{"measurement": "acaricidal effect (corrected mortality rate) activity level", "setting": "Tetranychus urticae", "result": "D or higher"}]}
{"compound": "CCS(=O)(=O)c1cc(C(F)(F)F)ccc1C(=O)N(C)c1ccc(C(OC)(C(F)(F)F)C(F)(F)F)cc1", "note": "[Compound 3-6]", "values": [{"measurement": "acaricidal effect (corrected mortality rate) activity level", "setting": "Tetranychus urticae", "result": "D or higher"}, {"measurement": "nematicidal effect (number of root nodules relative to non-treatment plot) activity level", "setting": "Meloidogyne incognita", "result": "D or higher"}, {"measurement": "control effect (control rate, lesion area) activity level", "setting": "[1]", "result": "D or higher"}]}
{"compound": "CCSc1cc(C(F)(F)F)ccc1C(=O)N(C)c1ccc(C(C(F)(F)F)C(F)(F)F)cc1", "note": "[Compound 3-10]", "values": [{"measurement": "acaricidal effect (corrected mortality rate) activity level", "setting": "Tetranychus urticae", "result": "D or higher"}, {"measurement": "nematicidal effect (number of root nodules relative to non-treatment plot) activity level", "setting": "Meloidogyne incognita", "result": "D or higher"}]}
{"compound": "CCS(=O)(=O)c1cc(C(F)(F)F)ccc1C(=O)N(C)c1ccc(C(C(F)(F)F)C(F)(F)F)cc1", "note": "[Compound 3-11]", "values": [{"measurement": "acaricidal effect (corrected mortality rate) activity level", "setting": "Tetranychus urticae", "result": "D or higher"}, {"measurement": "nematicidal effect (number of root nodules relative to non-treatment plot) activity level", "setting": "Meloidogyne incognita", "result": "D or higher"}]}
{"compound": "CCSc1cc(C(F)(F)F)ccc1C(=O)N(C)c1ccc(OC(F)(F)F)cc1", "note": "[Compound 3-12]", "values": [{"measurement": "nematicidal effect (number of root nodules relative to non-treatment plot) activity level", "setting": "Meloidogyne incognita", "result": "D or higher"}, {"measurement": "control effect (control rate, lesion area) activity level", "setting": "[1]", "result": "D or higher"}]}
{"compound": "CCSc1cc(C(F)(F)F)ccc1C(=O)N(C)c1ccc(Cl)cc1", "note": "[Compound 3-21]", "values": [{"measurement": "acaricidal effect (corrected mortality rate) activity level", "setting": "Tetranychus urticae", "result": "D or higher"}, {"measurement": "nematicidal effect (number of root nodules relative to non-treatment plot) activity level", "setting": "Meloidogyne incognita", "result": "D or higher"}]}
{"compound": "CCSc1cc(C(F)(F)F)ccc1C(=O)Nc1ccc(C(C(F)(F)F)C(F)(F)F)cc1", "note": "[Compound 4-5]", "values": [{"measurement": "nematicidal effect (number of root nodules relative to non-treatment plot) activity level", "setting": "Meloidogyne incognita", "result": "D or higher"}, {"measurement": "control effect (control rate, lesion area) activity level", "setting": "[1]", "result": "D or higher"}]}
